The source of these data is patent US9493436B2, “Tyrosine phosphatase inhibitors and uses thereof to modulate the activity of enzymes involved in the pathology of Mycobacterium tuberculosis” (priority 2011, dated 2016).

One experiment concerns the target LMWPTP (Homo sapiens, UniProt P24666). Kind of experiment: PTP selectivity panel: LMWPTP. Type of experiment: biochemical.
The target of another experiment is T1, VHX (Homo sapiens, UniProt Q9NRW4).
T1 sequence (Q9NRW4 1-184): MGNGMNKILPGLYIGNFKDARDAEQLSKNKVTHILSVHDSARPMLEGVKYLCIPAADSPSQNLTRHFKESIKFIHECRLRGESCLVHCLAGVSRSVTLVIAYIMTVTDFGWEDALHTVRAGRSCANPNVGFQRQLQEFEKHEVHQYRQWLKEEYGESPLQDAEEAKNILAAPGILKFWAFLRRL
The experiment in a line: biochemical. Type of experiment: biochemical.

A further experiment deals with FAP1 (Homo sapiens, UniProt Q12923). The experiment in a line: biochemical. Type of experiment: biochemical.
Chain of FAP1 (Q12923 whole entry, species assumed): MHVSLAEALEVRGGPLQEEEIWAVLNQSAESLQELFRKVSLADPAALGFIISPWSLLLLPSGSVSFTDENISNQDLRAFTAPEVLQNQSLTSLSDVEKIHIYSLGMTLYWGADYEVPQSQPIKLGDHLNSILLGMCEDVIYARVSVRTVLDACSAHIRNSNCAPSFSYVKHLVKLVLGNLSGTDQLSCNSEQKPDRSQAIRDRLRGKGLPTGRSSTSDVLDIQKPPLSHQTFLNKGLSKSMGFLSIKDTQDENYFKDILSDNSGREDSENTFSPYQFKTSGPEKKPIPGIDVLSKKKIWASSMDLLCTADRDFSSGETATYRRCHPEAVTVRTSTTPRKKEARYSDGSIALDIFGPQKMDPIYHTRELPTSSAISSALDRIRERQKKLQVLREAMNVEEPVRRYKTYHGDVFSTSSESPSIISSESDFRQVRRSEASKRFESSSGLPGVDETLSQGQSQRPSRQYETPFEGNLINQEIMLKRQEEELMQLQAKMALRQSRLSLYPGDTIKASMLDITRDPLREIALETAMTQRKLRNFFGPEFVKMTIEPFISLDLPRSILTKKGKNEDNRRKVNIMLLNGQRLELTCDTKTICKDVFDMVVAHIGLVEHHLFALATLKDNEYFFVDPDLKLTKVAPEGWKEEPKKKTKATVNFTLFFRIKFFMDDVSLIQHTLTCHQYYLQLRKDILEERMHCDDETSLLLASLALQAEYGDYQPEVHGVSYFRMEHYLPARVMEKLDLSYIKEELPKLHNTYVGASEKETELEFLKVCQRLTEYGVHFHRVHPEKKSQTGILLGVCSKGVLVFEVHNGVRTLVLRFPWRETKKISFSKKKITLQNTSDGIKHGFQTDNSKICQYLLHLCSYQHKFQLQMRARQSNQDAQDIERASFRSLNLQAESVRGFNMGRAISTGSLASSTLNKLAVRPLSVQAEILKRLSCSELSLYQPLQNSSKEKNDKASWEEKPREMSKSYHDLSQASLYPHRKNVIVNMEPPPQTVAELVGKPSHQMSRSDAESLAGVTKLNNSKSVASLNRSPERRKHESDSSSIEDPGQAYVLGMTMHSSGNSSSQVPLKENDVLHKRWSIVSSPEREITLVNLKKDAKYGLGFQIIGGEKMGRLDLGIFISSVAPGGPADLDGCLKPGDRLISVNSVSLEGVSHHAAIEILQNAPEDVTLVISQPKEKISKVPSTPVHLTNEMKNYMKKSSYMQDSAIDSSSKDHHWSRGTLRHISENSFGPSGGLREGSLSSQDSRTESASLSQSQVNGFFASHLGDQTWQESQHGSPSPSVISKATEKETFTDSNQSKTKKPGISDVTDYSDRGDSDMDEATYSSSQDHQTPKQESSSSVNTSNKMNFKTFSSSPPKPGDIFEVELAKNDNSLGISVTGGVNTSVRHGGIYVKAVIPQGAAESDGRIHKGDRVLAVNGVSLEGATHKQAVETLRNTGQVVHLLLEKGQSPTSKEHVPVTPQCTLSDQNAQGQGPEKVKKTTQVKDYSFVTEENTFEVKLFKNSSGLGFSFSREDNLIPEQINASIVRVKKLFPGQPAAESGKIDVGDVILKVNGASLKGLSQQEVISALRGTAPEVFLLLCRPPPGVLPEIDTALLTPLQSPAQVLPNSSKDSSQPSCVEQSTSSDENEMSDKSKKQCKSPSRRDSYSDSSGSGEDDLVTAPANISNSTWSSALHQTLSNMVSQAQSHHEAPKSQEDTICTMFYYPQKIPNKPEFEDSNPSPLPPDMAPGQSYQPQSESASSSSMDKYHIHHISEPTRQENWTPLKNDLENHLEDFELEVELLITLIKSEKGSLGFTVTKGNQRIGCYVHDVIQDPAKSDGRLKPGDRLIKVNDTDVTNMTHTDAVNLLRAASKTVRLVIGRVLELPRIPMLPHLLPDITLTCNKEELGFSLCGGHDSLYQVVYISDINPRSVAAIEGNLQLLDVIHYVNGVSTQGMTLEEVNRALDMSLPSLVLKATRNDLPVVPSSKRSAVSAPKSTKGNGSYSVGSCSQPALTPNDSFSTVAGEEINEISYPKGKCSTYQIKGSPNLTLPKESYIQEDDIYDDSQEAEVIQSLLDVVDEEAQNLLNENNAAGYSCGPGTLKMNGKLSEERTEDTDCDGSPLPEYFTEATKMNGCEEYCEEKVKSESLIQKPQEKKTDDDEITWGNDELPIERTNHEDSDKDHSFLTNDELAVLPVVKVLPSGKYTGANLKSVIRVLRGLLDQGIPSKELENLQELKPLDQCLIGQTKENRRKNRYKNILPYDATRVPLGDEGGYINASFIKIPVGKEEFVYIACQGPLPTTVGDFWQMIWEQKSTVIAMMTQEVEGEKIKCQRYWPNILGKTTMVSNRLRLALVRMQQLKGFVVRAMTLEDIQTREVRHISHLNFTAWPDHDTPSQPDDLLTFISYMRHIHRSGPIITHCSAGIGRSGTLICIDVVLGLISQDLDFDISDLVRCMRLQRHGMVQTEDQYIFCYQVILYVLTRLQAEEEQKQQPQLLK
In the next experiment the target is T2, CD45 (Homo sapiens, UniProt P08575).
T2 sequence (P08575 26-1306): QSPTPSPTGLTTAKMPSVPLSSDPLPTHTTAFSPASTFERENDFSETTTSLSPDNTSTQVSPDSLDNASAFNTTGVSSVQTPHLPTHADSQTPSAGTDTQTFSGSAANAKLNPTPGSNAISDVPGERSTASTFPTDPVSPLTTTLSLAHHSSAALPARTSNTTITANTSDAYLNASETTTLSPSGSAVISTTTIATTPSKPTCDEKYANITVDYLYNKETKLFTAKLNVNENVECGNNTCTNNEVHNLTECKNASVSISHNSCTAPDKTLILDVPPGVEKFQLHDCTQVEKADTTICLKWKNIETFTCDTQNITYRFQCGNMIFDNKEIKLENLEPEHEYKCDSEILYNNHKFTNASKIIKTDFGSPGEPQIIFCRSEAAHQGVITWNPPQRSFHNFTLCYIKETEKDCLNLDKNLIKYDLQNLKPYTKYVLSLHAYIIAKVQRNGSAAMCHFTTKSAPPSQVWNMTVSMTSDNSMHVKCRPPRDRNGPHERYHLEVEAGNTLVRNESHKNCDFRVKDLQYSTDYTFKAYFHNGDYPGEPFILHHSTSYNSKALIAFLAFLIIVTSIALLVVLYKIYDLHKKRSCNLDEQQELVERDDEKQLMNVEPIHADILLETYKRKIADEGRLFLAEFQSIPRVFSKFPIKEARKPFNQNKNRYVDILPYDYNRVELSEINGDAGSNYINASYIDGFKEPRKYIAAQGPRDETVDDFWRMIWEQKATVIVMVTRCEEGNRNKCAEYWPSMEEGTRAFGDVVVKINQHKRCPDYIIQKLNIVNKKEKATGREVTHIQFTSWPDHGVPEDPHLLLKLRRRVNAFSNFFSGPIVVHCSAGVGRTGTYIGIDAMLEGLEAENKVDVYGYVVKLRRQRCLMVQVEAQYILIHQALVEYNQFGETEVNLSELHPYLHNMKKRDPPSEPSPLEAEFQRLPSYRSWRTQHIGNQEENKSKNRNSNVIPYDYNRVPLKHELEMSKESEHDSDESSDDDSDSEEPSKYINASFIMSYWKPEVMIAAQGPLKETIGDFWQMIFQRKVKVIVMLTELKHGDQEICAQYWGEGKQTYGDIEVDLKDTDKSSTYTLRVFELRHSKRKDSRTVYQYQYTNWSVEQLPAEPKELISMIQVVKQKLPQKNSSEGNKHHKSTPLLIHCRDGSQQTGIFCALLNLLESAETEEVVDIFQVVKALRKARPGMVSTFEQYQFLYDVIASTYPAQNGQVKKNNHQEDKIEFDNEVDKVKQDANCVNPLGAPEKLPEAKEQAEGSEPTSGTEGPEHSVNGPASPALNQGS
Kind of experiment: biochemical. Type of experiment: biochemical.

Experiment [1] deals with IL-6 secretion in cells expressing mPTPB. The experiment in a line: IL-6 secretion in cells expressing mPTPB. Particulars: especially at 120 and 240 nM. Type of experiment: cell-based. An excerpt:
As explained above, ERK phosphorylation is important in the cellular secretion pathway of IL-6. However, mPTPB blocks or inhibits the phosphorylation of ERK which reduces and potentially prevents IL-6 secretion altogether.

A further experiment addresses T3, PTP1B (Homo sapiens, UniProt P18031).
T3 sequence (P18031 1-435): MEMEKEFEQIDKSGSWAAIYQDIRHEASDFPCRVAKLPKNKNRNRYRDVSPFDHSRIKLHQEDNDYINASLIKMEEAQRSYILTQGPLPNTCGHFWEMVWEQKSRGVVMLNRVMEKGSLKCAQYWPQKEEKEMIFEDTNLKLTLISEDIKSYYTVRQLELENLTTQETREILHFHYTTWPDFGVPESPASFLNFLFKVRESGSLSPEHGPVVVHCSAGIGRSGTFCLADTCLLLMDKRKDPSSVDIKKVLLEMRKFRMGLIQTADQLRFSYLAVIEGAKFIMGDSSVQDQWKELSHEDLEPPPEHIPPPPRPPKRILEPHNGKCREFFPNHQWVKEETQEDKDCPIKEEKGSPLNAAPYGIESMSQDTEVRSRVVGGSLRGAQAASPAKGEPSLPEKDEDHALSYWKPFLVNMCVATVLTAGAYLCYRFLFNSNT
Kind of experiment: biochemical. Type of experiment: biochemical.

In another experiment the target is VHR (Homo sapiens, UniProt P51452). Particulars: read-out: IC50 (μM) VHR.
Chain of VHR (P51452 whole entry, species assumed): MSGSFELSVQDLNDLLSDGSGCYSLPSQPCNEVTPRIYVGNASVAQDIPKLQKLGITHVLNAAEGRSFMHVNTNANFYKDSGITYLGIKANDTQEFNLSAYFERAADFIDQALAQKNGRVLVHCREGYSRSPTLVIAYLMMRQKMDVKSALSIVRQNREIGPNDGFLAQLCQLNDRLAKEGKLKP
The next experiment has as its target Meg2 (Homo sapiens, UniProt P43378). Particulars: read-out: IC50 (μM) Meg2.
In the next experiment the target is T4, mPTPB (Mycobacterium tuberculosis, UniProt I6WXK4).
T4 construct: The full-length mPTPB with a N-terminal His6-tag was expressed and purified; His6 (N); made in house; host or cells: E. coli BL21/DE3 (pET28b-mPTPB)
T4 sequence (I6WXK4 1-276): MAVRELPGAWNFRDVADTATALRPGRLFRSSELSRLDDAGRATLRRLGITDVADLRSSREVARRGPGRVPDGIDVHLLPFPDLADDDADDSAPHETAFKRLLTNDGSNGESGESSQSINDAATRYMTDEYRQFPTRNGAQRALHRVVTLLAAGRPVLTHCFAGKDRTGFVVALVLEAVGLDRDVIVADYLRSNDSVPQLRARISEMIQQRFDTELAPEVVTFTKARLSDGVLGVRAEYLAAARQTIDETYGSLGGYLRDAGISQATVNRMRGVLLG
The experiment in a line: biochemical. Type of experiment: biochemical.

For the next experiment, the target named is YopH (UniProt P15273). Type of experiment: biochemical. Particulars: read-out: IC50 (μM) YopH.
Chain of YopH (P15273 whole entry, looked up): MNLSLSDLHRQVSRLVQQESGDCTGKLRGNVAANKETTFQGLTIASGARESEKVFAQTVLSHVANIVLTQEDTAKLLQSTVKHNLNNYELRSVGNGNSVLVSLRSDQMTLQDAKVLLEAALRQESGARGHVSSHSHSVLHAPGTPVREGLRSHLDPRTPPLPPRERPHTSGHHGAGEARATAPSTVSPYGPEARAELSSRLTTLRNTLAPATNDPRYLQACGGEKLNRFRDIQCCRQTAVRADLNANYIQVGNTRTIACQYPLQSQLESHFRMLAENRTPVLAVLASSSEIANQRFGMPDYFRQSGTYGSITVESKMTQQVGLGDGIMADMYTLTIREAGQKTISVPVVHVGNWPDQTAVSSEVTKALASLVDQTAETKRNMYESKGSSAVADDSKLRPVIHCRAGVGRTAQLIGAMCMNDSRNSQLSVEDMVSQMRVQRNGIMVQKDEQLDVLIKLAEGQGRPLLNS

The structures appear in SMILES notation. “And” between values parts separate entries of the source, which are not always exact repeats. Identical values can stand only once. “Also recorded” adds a separate entry of the source.

The IC50 is the concentration at which inhibition is half-maximal. In general, Ki refers to the equilibrium dissociation constant of an inhibitor or competing ligand from its target. Read a low Ki as a stronger hold on the target.

Chain of LMWPTP (P24666 whole entry, species assumed): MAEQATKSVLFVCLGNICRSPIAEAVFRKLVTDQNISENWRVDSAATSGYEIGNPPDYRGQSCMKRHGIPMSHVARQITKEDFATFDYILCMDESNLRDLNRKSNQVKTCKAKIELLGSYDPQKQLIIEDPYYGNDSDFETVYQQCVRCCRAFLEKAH
Chain of Meg2 (P43378 whole entry): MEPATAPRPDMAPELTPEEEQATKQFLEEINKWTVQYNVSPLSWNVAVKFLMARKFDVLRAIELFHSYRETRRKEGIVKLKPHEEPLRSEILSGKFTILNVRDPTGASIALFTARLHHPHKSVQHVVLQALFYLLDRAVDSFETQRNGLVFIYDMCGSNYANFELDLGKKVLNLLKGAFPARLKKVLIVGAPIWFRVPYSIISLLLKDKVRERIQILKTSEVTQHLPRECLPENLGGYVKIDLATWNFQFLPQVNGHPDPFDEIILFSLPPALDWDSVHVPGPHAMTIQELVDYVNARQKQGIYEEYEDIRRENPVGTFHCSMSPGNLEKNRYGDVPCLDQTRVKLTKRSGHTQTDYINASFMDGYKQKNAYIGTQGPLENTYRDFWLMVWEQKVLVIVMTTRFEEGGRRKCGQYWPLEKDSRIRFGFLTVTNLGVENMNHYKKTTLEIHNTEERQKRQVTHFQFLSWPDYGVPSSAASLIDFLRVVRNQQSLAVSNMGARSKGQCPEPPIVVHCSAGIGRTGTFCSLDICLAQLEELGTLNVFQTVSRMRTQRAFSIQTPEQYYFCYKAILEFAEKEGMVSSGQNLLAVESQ

Consider `O=C(O)c1cc2c(C#Cc3cccc(C(F)(F)F)c3)c(-c3ccccc3)oc2cc1O` [32 (L01Z08)], for which the 50% inhibitory concentration (IC50) came out at 4.3 ± 0.6 µM at LMWPTP; 1.4 ± 0.2 µM against VHX; 1.3 ± 0.2 µM at FAP1; 4.2 ± 0.5 µM on CD45; 6.7 ± 0.7 µM against PTP1B; 1.9 ± 0.4 µM at VHR. For the same compound, on Meg2, the IC50 was 4.3 ± 0.5 µM. For the same compound, in experiment [1], the IL-6 secretion entry is “returned to normal or near normal IL-6 secretion levels”.
Take `Cn1c(-c2ccccc2C(F)(F)F)c(I)c2cc(C(=O)O)c(O)cc21` [Compound 207a, 6-hydroxy-3-iodo-1-methyl-2-(2-(trifluoromethyl)phenyl)-1H-indole-5-carboxylic acid]: the IC50 against VHX is 56 ± 1 µM; against FAP1, 84 ± 1 µM; at mPTPB (pNPP substrate, pH 7.0, 25° C., read-out: IC50 (μM) against mPTPB), 1.2 µM and 1.18 µM; against CD45 it was 227 ± 4 µM; against PTP1B, 700 ± 100 µM; at YopH, 220 ± 20 µM. The “mode of mPTPB inhibition” value at mPTPB (kinetic analyses, Lineweaver-Burk plot) was “Non-competitive inhibition; also recorded: reversible and noncompetitive inhibitor”. Besides, the affinity on mPTPB (pH 7.0, 25° C.), expressed as Ki, was 1.21 ± 0.04 µM. In addition, on mPTPB (panel of 11 PTPs), the “selectivity for mPTPB over the other ten PTPs” value was 47 fold.
